Laboratory results taken from EP4050002A1, “ANTI-PROLIFERATIVE AGENTS” (First Health Pharmaceuticals B.V., priority 2021, dated 2022).

Molecular target: DDX3X (Homo sapiens, UniProt O00571)
Assay: Helicase assay (unwinding of 18/36mer dsRNA)
Type: biochemical
Set-up: host or cells: 293T cells (transient transfection, anti-HA immunoprecipitation, protein kept on beads)
Details: 50, 250 and 500 µM, in presence of ATP
Description: The DDX3X protein was obtained by immunoprecipitation from 293T cells (3x10^5) were seeded in 6-well plates and, after 24h, transfected with 1 µg of HA-DDX3 (Addgene plasmid # 44975) by using the Lipofectamine reagent (Thermo Fischer Scientific). After 36 h, cells were lysed in NP-40 Lysis Buffer (20 mM HEPES pH=7.5, 10 mM EGTA pH=8, 40 mM β-glycerolphosphate, 1% NP40, 2.5 mM MgCl2, 2 mM Orthovanadate, 2 mM NaF, 1 mM DTT, and 1X protease inhibitors mixture) and 2 mg of proteins were immunoprecipitated with anti-HA antibodies (Covance) in NP40 lysis buffer. Immunoprecipitated samples were washed twice with lysis buffer and one time in helicase reaction buffer (50 mM Tris HCl pH=8, 1 mM DTT, 5% glycerol, 10 mM MgCl2). Beads were then resuspended in 100 µl in helicase reaction buffer. […]
Ultimately, reactions were performed in a final volume 100 µl of helicase reaction buffer plus ATP 4 mM, 30 µl of beads used to immunoprecipitate HA-DDX3X, 20 nM of 18/36mer dsRNA and 100 nM of competitor at 37°C for 1 hour and stopped by adding 10 µl of a stopping solution (EDTA 60 mM pH=8, 40% glycerol, 0.6% SDS, 1% Orange G). […] Quantification of the ssRNA was performed by the ImageJ software (version 1.53, NIH). […]

Sequence of DDX3X (O00571 whole entry): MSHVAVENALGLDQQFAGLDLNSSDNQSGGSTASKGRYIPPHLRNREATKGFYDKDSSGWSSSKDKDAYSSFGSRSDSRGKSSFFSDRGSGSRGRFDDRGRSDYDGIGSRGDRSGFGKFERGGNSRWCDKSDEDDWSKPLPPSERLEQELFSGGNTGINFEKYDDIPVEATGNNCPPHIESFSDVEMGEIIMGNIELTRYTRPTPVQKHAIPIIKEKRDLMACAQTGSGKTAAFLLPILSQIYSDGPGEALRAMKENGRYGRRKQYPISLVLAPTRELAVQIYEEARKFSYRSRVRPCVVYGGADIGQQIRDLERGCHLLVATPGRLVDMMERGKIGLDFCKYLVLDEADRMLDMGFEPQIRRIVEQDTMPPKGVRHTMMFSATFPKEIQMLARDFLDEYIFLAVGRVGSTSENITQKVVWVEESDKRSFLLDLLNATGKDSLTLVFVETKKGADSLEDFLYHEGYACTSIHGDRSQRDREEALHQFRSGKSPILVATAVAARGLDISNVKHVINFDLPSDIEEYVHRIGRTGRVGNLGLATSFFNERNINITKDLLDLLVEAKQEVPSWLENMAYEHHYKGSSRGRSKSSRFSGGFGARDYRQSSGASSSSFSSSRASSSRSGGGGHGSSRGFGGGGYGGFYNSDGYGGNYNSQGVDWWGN

In the case of CCCCc1cn(-c2ccc(-c3nnc(-c4ccccc4C(F)(F)F)o3)cc2)nn1 [Compound 5], the “inhibitory effect on DDX3X helicase activity” value was “inhibitory effect on DDX3X helicase activity”.
